Source: patent US20160304957A1, “TREATMENT AND MODULATION OF GENE EXPRESSION AND SKIN AGING” (DSM NUTRITIONAL PRODUCTS LTD., priority 2006, published 2016)

Test system: HaCaT human keratinocytes
Assay: Affymetrix GeneChip microarray, transcriptional response to β-carotene and/or UVA
Type: cell-based
Settings: UVA and β-carotene 1.5 μM
Experimental: The cell culture experiments were carried out as described. Briefly, a subclone of passage 65 HaCaT keratinocytes, selected for differentiation capacity, was used at passages 16 to 23 after subcloning. 2×10^5 cells were seeded per 60 millimeter dish. Starting the following day, the cells were pretreated for 2 days with β-carotene at 1.5 μM, a typical concentration in human plasma after moderate dietary supplementation)
β-carotene-containing medium was prepared as follows. Fresh all-E-β-carotene (DSM Nutritional Products, Kaiseraugst, Switzerland) stock solution in THF (containing 0.025% BHT; Fluka Chemie A G, Switzerland) was diluted 1:2 with ethanol and added to cell culture medium to a final concentration of 1.5 μM β-carotene. The solvent concentration in the medium was 0.5% for all treatments. β-carotene-containing medium was prepared fresh for the daily medium changes.
On day 3 of the experiment, the cells were irradiated with a Hönle sun lamp Sol 500 (270 kJ/m^2; Dr. Hönle, Germany).
Five independent, factorially designed cell irradiation experiments were analyzed by microarray hybridization. For each experiment, one chip was hybridized per treatment condition. GeneChip® analysis was done as described in [132], which is incorporated by reference, as if recited in full herein. Gene regulation by β-carotene and/or UVA was calculated relative to placebo.
Changes in gene expression were included in further analysis only if the change factor was […], and if unpaired t-tests yielded p values≦0.05. Upregulations by a […] are labeled bold, downregulations by a change factor of […] are labeled bold italics. (Table 1) To identify the pathways affected by the treatments functional information on the genes was retrieved from public literature databases.

CC1=C(/C=C/C(C)=C/C=C/C(C)=C/C=C/C=C(C)/C=C/C=C(C)/C=C/C2=C(C)CCCC2(C)C)C(C)(C)CCC1 [β-carotene, All-E-β-carotene]
5-aminolevulinate synthase (Y00451) change factor: 0.41
AAC11 (U83857) change factor: −0.05
AP-2α (M36711) change factor: −0.67
ATF4; activating transcription factor 4 (AL022312) change factor: 0.96
BAXγ (L22475) change factor: −0.34
BAXδ (U19599) change factor: 0.67
BMP2a; bone morphogenetic protein 2a (bmp-2a) (M22489) change factor: 0.16
BPAG1; bullous pemphigoid antigen (M69225) change factor: 0.12
BUB1; mitotic checkpoint kinase (AF053305) change factor: −0.81
C-FOS (V01512) change factor: 2.49
C-FOS (V01512, second entry) change factor: 1.36
C-JUN (J04111) change factor: 0.93
C/EBPβ; NF-IL6 (X52560) change factor: 0.83
C/EBPγ (U20240) change factor: 0.71
C/EBPδ; NF-IL6-β (M83667) change factor: 0.31
CDK activating kinase (X77743) change factor: 0.57
CDK-inhibitor p57KIP2 (KIP2) mrna (U22398) change factor: 0.79
CENP-A; centromere protein-A (U14518) change factor: −1.82
CENP-E; centromere protein-E (Z15005) change factor: −1.44
CENP-F; mitosin (U30872) change factor: −1.22
CEP110; centriole associated protein (AF083322) change factor: −4.18
CIP2; CDKN3 (L25876) change factor: −0.81
CLARP; CFLAR, alternatively spliced (AF005775) change factor: −0.62
COUP-TF II; ARP1; apoA1 regulatory protein (M64497) change factor: 0.81
COX-2, cyclooxygenase-2 (U04636) change factor: 0.2
CRADD; death domain containing protein (U84388) change factor: −0.87
DKK-1; dickkopf-1 (AB020315) change factor: 1.4
DNA ligase III (X84740) change factor: −0.71
DNA polymerase α-subunit (X06745) change factor: −0.63
DNA primase (subunit p58) (X74331) change factor: −0.41
DNA-PK, catalytic subunit (U47077) change factor: −1.06
DSC2; desmocollin type 2a and 2b (X56807) change factor: −0.29
DUSP5 (U15932) change factor: 2.84
DUSP7 (X93921) change factor: 0.99
EGFR; precursor of epidermal growth factor receptor (X00588) change factor: −0.69
ENDOGL-2 (AB020735) change factor: 0.41
ERBB3 precursor; similar to (H06628) change factor: −0.78
ERCC5; excision repair protein (L20046) change factor: −0.95
ERF-2 (X78992) change factor: 0.99
FGFR2; FGF receptor 2 (M87770) change factor: −0.48
FGFR3; FGF receptor (M64347) change factor: −2.58
FRA-1 (X16707) change factor: 0.71
FRA-2 (X16706) change factor: −0.13
GADD34 (U83981) change factor: 2.62
GADD153 (S62138) change factor: 7.64
GDF-1; growth/differentiation factor 1 (gdf-1) (M62302) change factor: −0.43
GEM (U10550) change factor: 3.91
HB-EGF; heparin-binding egf-like growth factor (M60278) change factor: 3.32
HER3; epidermal growth factor receptor (her3) (M34309) change factor: −1.12
HER3; epidermal growth factor receptor (her3) (M34309, second entry) change factor: −1.56
HM74; PAR1-related (D10923) change factor: −0.55
HOXA7 (AJj005814) change factor: −0.52
HOXC6 (S82986) change factor: −0.82
HOXD4 (X59373) change factor: −0.76
ID1 (X77956) change factor: −2.43
ID1 (X77956, second entry) change factor: −4.7
ID3; HEIR1 (AL021154) change factor: −4.35
ID-2H (D13891) change factor: −2.68
ID-4 (AL022726) change factor: −0.49
IEX-1 (S81914) change factor: 0.91
IFIT1; IFI56 (M24594) change factor: −0.61
IFIT1; IFI56 (M24594, second entry) change factor: −0.71
IFIT2; ISG-54K (M14660) change factor: 1.17
IFIT2; ISG-54K (M14660, second entry) change factor: 0.58
IFIT4; IFI60; cig5; RIGG (AF026941) change factor: 5.46
IGF-BP 3; insulin-like growth factor-binding protein-3 gene (M35878) change factor: 1.64
IGF-BP 3; insulin-like growth factor-binding protein-3 gene (M35878, second entry) change factor: 1.73
IL6; Interleukin 6; IFNβα2a (X04430) change factor: 2.29
IL18; IGIF (IFNγ inducing factor) (D49950) change factor: −0.18
ILK; integrin-linked kinase (U40282) change factor: −0.51
IRF-1; interferon regulatory factor 1 (L05072) change factor: 0.29
IRF-7b; interferon regulatory factor 7b (U53831) change factor: 0.49
IRF-9; p48; ISGF3γ (M97935) change factor: −0.67
JUNB (M29039) change factor: −0.72
JUNB (X51345) change factor: −0.7
JUND (X56681) change factor: 3.2
JUND (X56681, second entry) change factor: 1.83
JUND (X56681, third entry) change factor: 1.66
K-RAS (M54968) change factor: −0.64
KINESIN-LIKE 2; HSET (AL021366) change factor: −0.72
KINESIN-LIKE 2; HSET (D14678) change factor: −0.72
KINESIN-LIKE 2; HSET (D14678, second entry) change factor: −1.15
KINESIN-LIKE 5; KNSL5; MKLP-1; mitotic kinesin-like protein-1 (X67155) change factor: −1.04
KINESIN-LIKE 6; KNSL6; MCAK; mitotic centromere-associated kinesin (U63743) change factor: −1.61
KINESIN_LIKE 1; KNSL1; HKSP; EG5 (U37426) change factor: −0.92
KLF4; EZF (epithelial Zn finger) (U70663) change factor: 3.46
KRS-2; stress responsive serine/threonine protein kinase (U60207) change factor: −0.35
KU (p70/p80) (M30938) change factor: −0.64
LIM kinase 2 (limk-2) (D45906) change factor: −0.66
Lekti (AJ228139) change factor: 0.75
MAD3L; mitotic checkpoint kinase (AF053306) change factor: −2.45
MAF-F (AL021977) change factor: 1.71
MAP kinase phosphatase (mkp-2) (U48807) change factor: 1.12
MAPK9; JNK2 (U09759) change factor: −0.57
MAPK14; p38; csaids binding protein (csbp1) (L35263) change factor: −0.53
MAPKK3b; MKK3b (D87116) change factor: 0.62
MAPKK MEK5b (U71087) change factor: −0.7
MAPKKK5; ASK1 (U67156) change factor: −4.7
MEIS2 (AF017418) change factor: −1.3
MMP10 (X07820) change factor: 2.2
MMP-1 (M13509) change factor: −0.22
MMP-3 (X05232) change factor: 0.93
N-RAS (X02751) change factor: −0.01
